Test results published in patent publication US20070281992A1, “COMBINATION OF GYRASE B INHIBITORS AND PROTEIN SYNTHESIS INHIBITORS AND USES THEREOF” (priority 2006, published 2007).
Like-named read-outs stand apart in the source and are kept apart here.

Experiments:
Type in all cases: cell-based
[1] = test system: Methicillin-Susceptible Staphylococcus aureus Isolates; assay: MIC assay (NCCLS broth dilution), MSSA clinical isolates; conditions: for MIC: read-out: Minimal Inhibitory Concentration
Procedure, shortened: (§1)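 Testing followed NCCLS approved-standard dilution methodology in Mueller Hinton II broth across an 11-step two-fold series. Combinations containing novobiocin used a 2.5:1 ratio with the tetracycline partner.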

[2] = test system: Methicillin-Resistant Staphylococcus aureus Isolates; assay: MIC assay (NCCLS broth dilution), MRSA clinical isolates; conditions: Staphylococcus aureus; for MIC: read-out: Minimal Inhibitory Concentration
Procedure, shortened: as §1

[3] = test system: Vancomycin-intermediate Staphylococcus aureus Isolates; assay: MIC assay (NCCLS broth dilution), VISA isolates; conditions: for MIC: read-out: Minimal Inhibitory Concentration
Procedure, shortened: as §1

[4] = test system: Linezolid-Resistant Staphylococcus aureus Isolates; assay: MIC assay (NCCLS broth dilution), LRSA isolates; conditions: for MIC: read-out: Minimal Inhibitory Concentration
Procedure, shortened: as §1

[5] = test system: Enterococcus faecalis (ATCC 29212); assay: MIC assay, quality control strain E. faecalis ATCC 29212; conditions: ATCC29212, E. faecalis ATCC 29212, repeat runs 22FEB06-09MAR06, combinations at 2.5:1, read-out: Minimal Inhibitory Concentration, quality control
Procedure, shortened: as §1

[6] = Staphylococcus aureus, 52 MSSA isolates, combinations at 2.5:1, given as NB/partner
[7] = 52 MRSA isolates, combinations at 2.5:1, given as NB/partner

Compound: Cc1onc(-c2ccccc2)c1C(=O)N[C@@H]1C(=O)N2[C@@H]1SC(C)(C)[C@@H]2C(=O)O [OX, oxacillin]
- MIC Range ([1]; 52 MSSA isolates, Mueller Hinton II Broth, combinations at 2.5:1, given as NB/partner): .12 to .5 µg/mL
- MIC ([1]; Staphylococcus aureus, MSSA isolate 133, 03MAR06): 0.12 µg/mL
- MIC ([1]; Staphylococcus aureus, MSSA isolate 134, 03MAR06): 0.25 µg/mL
- MIC ([1]; Staphylococcus aureus, MSSA isolate 135, 03MAR06): 0.25 µg/mL
- MIC ([1]; Staphylococcus aureus, MSSA isolate 753, 22FEB06): 0.25 µg/mL
- MIC ([1]; Staphylococcus aureus, MSSA isolate 754, 22FEB06): 0.25 µg/mL
- MIC ([1]; Staphylococcus aureus, MSSA isolate 754, 24FEB06): 0.25 µg/mL
- MIC ([1]; Staphylococcus aureus, MSSA isolate 755, 22FEB06): 0.25 µg/mL
- MIC ([1]; Staphylococcus aureus, MSSA isolate 756, 03MAR06): 0.25 µg/mL
- MIC ([1]; Staphylococcus aureus, MSSA isolate 779, 22FEB06): 0.12 µg/mL
- MIC ([1]; Staphylococcus aureus, MSSA isolate 780, 03MAR06): 0.25 µg/mL
- MIC ([1]; Staphylococcus aureus, MSSA isolate 781, 03MAR06): 0.25 µg/mL
- MIC ([1]; Staphylococcus aureus, MSSA isolate 782, 22FEB06): 0.25 µg/mL
- MIC ([1]; Staphylococcus aureus, MSSA isolate 783, 22FEB06): 0.25 µg/mL
- MIC ([1]; Staphylococcus aureus, MSSA isolate 784, 22FEB06): 0.25 µg/mL
- MIC ([1]; Staphylococcus aureus, MSSA isolate 785, 22FEB06): 0.12 µg/mL
- MIC ([1]; Staphylococcus aureus, MSSA isolate 786, 22FEB06): 0.25 µg/mL
- MIC ([1]; Staphylococcus aureus, MSSA isolate 787, 22FEB06): 0.25 µg/mL
- MIC ([1]; Staphylococcus aureus, MSSA isolate 788, 22FEB06): 0.25 µg/mL
- MIC ([1]; Staphylococcus aureus, MSSA isolate 789, 24FEB06): 0.25 µg/mL
- MIC ([1]; Staphylococcus aureus, MSSA isolate 790, 24FEB06): 0.25 µg/mL
- MIC ([1]; Staphylococcus aureus, MSSA isolate 791, 24FEB06): 0.25 µg/mL
- MIC ([1]; Staphylococcus aureus, MSSA isolate 792, 03MAR06): 0.12 µg/mL
- MIC ([1]; Staphylococcus aureus, MSSA isolate 793, 24FEB06): 0.25 µg/mL
- MIC ([1]; Staphylococcus aureus, MSSA isolate 794, 24FEB06): 0.25 µg/mL
- MIC ([1]; Staphylococcus aureus, MSSA isolate 994, 22FEB06): 0.25 µg/mL
- MIC ([1]; Staphylococcus aureus, MSSA isolate 995, 03MAR06): 0.12 µg/mL
- MIC ([1]; Staphylococcus aureus, MSSA isolate 996, 22FEB06): 0.25 µg/mL
- MIC ([1]; Staphylococcus aureus, MSSA isolate 997, 22FEB06): 0.25 µg/mL
- MIC ([1]; Staphylococcus aureus, MSSA isolate 998, 03MAR06): 0.12 µg/mL
- MIC ([1]; Staphylococcus aureus, MSSA isolate 999, 22FEB06): 0.25 µg/mL
- MIC ([1]; Staphylococcus aureus, MSSA isolate 1000, 24FEB06): 0.25 µg/mL
- MIC ([1]; Staphylococcus aureus, MSSA isolate 1001, 24FEB06): 0.25 µg/mL
- MIC ([1]; Staphylococcus aureus, MSSA isolate 1002, 24FEB06): 0.5 µg/mL
- MIC ([1]; Staphylococcus aureus, MSSA isolate 1003, 03MAR06): 0.25 µg/mL
- MIC ([1]; Staphylococcus aureus, MSSA isolate 1005, 24FEB06): 0.25 µg/mL
- MIC ([1]; Staphylococcus aureus, MSSA isolate 1006, 24FEB06): 0.25 µg/mL
- MIC ([1]; Staphylococcus aureus, MSSA isolate 1007, 24FEB06): 0.25 µg/mL
- MIC ([1]; Staphylococcus aureus, MSSA isolate 1008, 24FEB06): 0.25 µg/mL
- MIC ([1]; Staphylococcus aureus, MSSA isolate 1009, 24FEB06): 0.5 µg/mL
- MIC ([1]; Staphylococcus aureus, MSSA isolate 1131, 24FEB06): 0.5 µg/mL
- MIC ([1]; Staphylococcus aureus, MSSA isolate 1132, 03MAR06): 0.12 µg/mL
- MIC ([1]; Staphylococcus aureus, MSSA isolate 1133, 24FEB06): 0.5 µg/mL
- MIC ([1]; Staphylococcus aureus, MSSA isolate 1134, 24FEB06): 0.25 µg/mL
- MIC ([1]; Staphylococcus aureus, MSSA isolate 1654, 03MAR06): 0.12 µg/mL
- MIC ([1]; Staphylococcus aureus, MSSA isolate 1656, 03MAR06): 0.25 µg/mL
- MIC ([1]; Staphylococcus aureus, MSSA isolate 1662, 03MAR06): 0.25 µg/mL
- MIC ([1]; Staphylococcus aureus, MSSA isolate 1663, 03MAR06): 0.25 µg/mL
- MIC ([1]; Staphylococcus aureus, MSSA isolate 1666, 03MAR06): 0.25 µg/mL
- MIC ([1]; Staphylococcus aureus, MSSA isolate 1667, 03MAR06): 0.25 µg/mL
- MIC ([1]; Staphylococcus aureus, MSSA isolate 1668, 03MAR06): 0.25 µg/mL
- MIC ([1]; Staphylococcus aureus, MSSA isolate 1671, 03MAR06): 0.25 µg/mL
- MIC ([1]; Staphylococcus aureus, MSSA isolate 1728, 03MAR06): 0.25 µg/mL
- MIC ([1]; Staphylococcus aureus, MSSA isolate 1728, retest 09MAR06): 0.12 µg/mL
- MIC50 [1, 6]: 0.25 µg/mL
- MIC90 [1, 6]: 0.25 µg/mL
- MIC ([2]; MRSA isolate 757, 24FEB06): 32 µg/mL
- MIC ([2]; MRSA isolate 758, 03MAR06): > 32 µg/mL
- MIC ([2]; MRSA isolate 758, 24FEB06): > 32 µg/mL
- MIC ([2]; MRSA isolate 760, 03MAR06): > 32 µg/mL
- MIC ([2]; MRSA isolate 760, 24FEB06): > 32 µg/mL
- MIC ([2]; MRSA isolate 763, 22FEB06): 32 µg/mL
- MIC ([2]; MRSA isolate 765, 22FEB06): > 32 µg/mL
- MIC ([2]; MRSA isolate 766, 22FEB06): > 32 µg/mL
- MIC ([2]; MRSA isolate 767, 22FEB06): 16 µg/mL
- MIC ([2]; MRSA isolate 768, 22FEB06): 8 µg/mL
- MIC ([2]; MRSA isolate 769, 22FEB06): 16 µg/mL
- MIC ([2]; MRSA isolate 770, 22FEB06): 16 µg/mL
- MIC ([2]; MRSA isolate 771, 22FEB06): > 32 µg/mL
- MIC ([2]; MRSA isolate 772, 22FEB06): 32 µg/mL
- MIC ([2]; MRSA isolate 773, 24FEB06): 8 µg/mL
- MIC ([2]; MRSA isolate 774, 24FEB06): 32 µg/mL
- MIC ([2]; MRSA isolate 775, 24FEB06): > 32 µg/mL
- MIC ([2]; MRSA isolate 776, 24FEB06): > 32 µg/mL
- MIC ([2]; MRSA isolate 777, 24FEB06): 32 µg/mL
- MIC ([2]; MRSA isolate 778, 24FEB06): > 32 µg/mL
- MIC ([2]; MRSA isolate 886, 24FEB06): 32 µg/mL
- MIC ([2]; MRSA isolate 887, 24FEB06): > 32 µg/mL
- MIC ([2]; MRSA isolate 888, 24FEB06): > 32 µg/mL
- MIC ([2]; MRSA isolate 889, 24FEB06): > 32 µg/mL
- MIC ([2]; MRSA isolate 1004, 24FEB06): 8 µg/mL
- MIC ([2]; MRSA isolate 1010, 22FEB06): 32 µg/mL
- MIC ([2]; MRSA isolate 1012, 22FEB06): > 32 µg/mL
- MIC ([2]; MRSA isolate 1013, 22FEB06): 32 µg/mL
- MIC ([2]; MRSA isolate 1014, 22FEB06): 32 µg/mL
- MIC ([2]; MRSA isolate 1015, 22FEB06): 32 µg/mL
- MIC ([2]; MRSA isolate 1016, 22FEB06): 8 µg/mL
- MIC ([2]; MRSA isolate 1017, 22FEB06): 16 µg/mL
- MIC ([2]; MRSA isolate 1021, 22FEB06): 32 µg/mL
- MIC ([2]; MRSA isolate 1022, 22FEB06): 8 µg/mL
- MIC ([2]; MRSA isolate 1023, 22FEB06): 4 µg/mL
- MIC ([2]; MRSA isolate 1024, 22FEB06): 16 µg/mL
- MIC ([2]; MRSA isolate 1025, 22FEB06): 16 µg/mL
- MIC ([2]; MRSA isolate 1135, 22FEB06): 32 µg/mL
- MIC ([2]; MRSA isolate 1136, 22FEB06): 32 µg/mL
- MIC ([2]; MRSA isolate 1137, 22FEB06): > 32 µg/mL
- MIC ([2]; MRSA isolate 1138, 22FEB06): 8 µg/mL
- MIC ([2]; MRSA isolate 1222, 03MAR06): 32 µg/mL
- MIC ([2]; MRSA isolate 1222, 24FEB06): 32 µg/mL
- MIC ([2]; MRSA isolate 1653, 03MAR06): > 32 µg/mL
- MIC ([2]; MRSA isolate 1658, 03MAR06): 16 µg/mL
- MIC ([2]; MRSA isolate 1659, 03MAR06): 16 µg/mL
- MIC ([2]; MRSA isolate 1661, 03MAR06): > 32 µg/mL
- MIC ([2]; MRSA isolate 1729, 03MAR06): > 32 µg/mL
- MIC ([2]; MRSA isolate 1730, 24FEB06): 32 µg/mL
- MIC ([2]; MRSA isolate 2009, 24FEB06): > 32 µg/mL
- MIC ([2]; MRSA isolate 2010, 24FEB06): 16 µg/mL
- MIC ([2]; MRSA isolate 2011, 24FEB06): 32 µg/mL
- MIC50 [2, 7]: 32 µg/mL
- MIC90 [2, 7]: > 32 µg/mL
- MIC Range ([3]; 2 VISA isolates, combinations at 2.5:1, given as NB/partner): >32 µg/mL
- MIC ([3]; Staphylococcus aureus, VISA isolate 2012, 03MAR06): > 32 µg/mL
- MIC ([3]; Staphylococcus aureus, VISA isolate 2018, 03MAR06): > 32 µg/mL
- MIC50 ([3]; Staphylococcus aureus, 2 VISA isolates, combinations at 2.5:1, given as NB/partner): > 32 µg/mL
- MIC Range ([4]; 3 LRSA isolates, combinations at 2.5:1): >32 µg/mL
- MIC ([4]; Staphylococcus aureus, LRSA isolate 1651, 24FEB06): > 32 µg/mL
- MIC ([4]; Staphylococcus aureus, LRSA isolate 1652, 24FEB06): > 32 µg/mL
- MIC ([4]; Staphylococcus aureus, LRSA isolate 1725, 24FEB06): > 32 µg/mL
- MIC50 ([4]; Staphylococcus aureus, 3 LRSA isolates, combinations at 2.5:1): > 32 µg/mL
- MIC [5]: 8 µg/mL
